Laboratory results: paper PMC9416111, “Synthesis and Biological Activity of Unsymmetrical Monoterpenylhetaryl Disulfides” (Molecules, 2022)
In brackets after ≈: the same amount, converted by molar mass.

What was measured:
[1] = test system: red blood cells from laboratory mice; assay: Erythrotoxicity (hemolytic activity); type: cell-based; settings: 100 μM, 1, 3 and 5 h of incubation
Procedure: No significant hemolytic activity was detected at a concentration of 1 μM (Figure 3B).
(§1) To evaluate the erythrotoxicity, antioxidant and membrane-protective activity of the compounds, we used 0.5% (v/v) suspension of red blood cells from laboratory mice in phosphate-buffered saline (PBS, pH 7.4). The test substances were previously dissolved in ethanol. Erythrotoxicity (hemolytic activity) was evaluated by the degree of hemolysis of red blood cells 1–5 h after the introduction of solutions of the compounds. Membrane-protective and antioxidant activity was determined by the degree of inhibition of H2O2-induced hemolysis. For this purpose, 30 min after the erythrocyte suspension was added to the solutions of the test compounds, hemolysis was initiated with a solution of hydrogen peroxide (0.006%). Then, the reaction mixture was incubated in a thermostatic shaker Biosan ES-20 with slow stirring at 37 °C for 5 h. An aliquot was taken from the incubation medium every hour, centrifuged for 5 min (1600× g), and the degree of hemolysis was determined by the hemoglobin content in the supernatant on a ThermoSpectromic Genesys 20 spectrophotometer (Thermo Fisher Scientific, Waltham, MA, USA) at 524 nm. The percentage of hemolysis was calculated in relation to the complete hemolysis of the sample. Each experiment was designed with 4–8 replicates. Statistical data processing and charting were performed using the Microsoft Office Excel 2007 software package (Microsoft, Redmond, WA, USA). The data represent the mean ± SE.
Figure 3 Hemolytic activity of unsymmetrical disulfides at the concentration of 100 μM (A) and 1 μM (B) after 1, 3 and 5 h of incubation.

[2] = test system: S. aureus ATCC 29213 (MSSA); assay: Antibacterial MIC, broth microdilution (EUCAST); type: cell-based, Staphylococcus aureus; settings: Staphylococcus aureus, 24 h, Mueller-Hinton broth
Procedure: (§2) Minimum inhibitory concentrations (MICs) of compounds was determined by the broth microdilution assay in 96-well plates (Eppendorf, Hamburg, Germany) according to the EUCAST rules for antimicrobial susceptibility testing in full Mueller-Hinton broth (MH). The concentrations of compounds to be tested ranged from 1 to 2048 µg/mL. The MIC was determined as the lowest concentration of an antibiotic for which no visible bacterial growth could be observed after 24 h of incubation.

[3] = test system: S. aureus MRSA clinical isolate; assay: Antibacterial MIC, broth microdilution (EUCAST); type: cell-based, Staphylococcus aureus; settings: Staphylococcus aureus, MRSA; 24 h, Mueller-Hinton broth
Procedure: as §2

P. aeruginosa ATCC 27853 = assay: Antibacterial MIC, broth microdilution (EUCAST); type: cell-based, Pseudomonas aeruginosa; settings: Pseudomonas aeruginosa, ATCC27853; 24 h, Mueller-Hinton broth
Procedure: as §2

[4] = test system: influenza virus A/Puerto Rico/8/34 (H1N1); assay: Antiviral cell protection assay in MDCK cells; type: cell-based; settings: H1N1, MDCK, 72 h
[5] = test system: S. typhimurium TA98, TA100 and TA102 strains; assay: Mutagenicity in the Ames test (spot-test); type: cell-based, Salmonella typhimurium; settings: strain in which mutagenicity was found; NF = not found
Procedure: The mutagenicity of compounds was evaluated in the Ames test with S. typhimurium TA98, TA100 and TA102 strains as described in [38]. The spot-test modification has been applied to avoid false-negative results driven with antibacterial activity of compounds. The tested compound was considered to be mutagenic if the number of revertant colonies increased more than 2 times close to the filter paper with compound.

[6] = test system: Candida albicans 703 clinical isolate; assay: Antifungal MIC, broth microdilution (CLSI M27-A3); settings: Candida albicans, 24 h, read-out: MIC C. albicans 703 Clinical Isolate
[7] = Cytotoxicity, MTT on EBL cells; settings: bovine, EBL cells (embryonic bovine lung)
Procedure: Cytotoxicity of compounds was determined using the microtetrazolium test (MTT) on EBL cells. The cells were cultured in DMEM—Dulbecco’s Modified Eagle’s Medium (Sigma Aldrich, St. Louis, MO, USA) supplemented with 10% FBS, 2 mM L-glutamine, 100 µg/mL penicillin and 100 µg/mL streptomycin. Cells were seeded in 96-well plates with the density of 3000 cells per well and left overnight to allow for the attachment. Cells were next cultured at 37 °C and 5% CO2 in the presence of compounds of interest at various concentrations from 1.25 to 160 µg/mL. After 24 h of cultivation the cells were subjected to MTT-assay. The formazan was solubilized by DMSO and the optical density was measured on Tecan Infinite 200Pro at 570 nm. The concentration required to inhibit cellular dehydrogenase activity by 50% (CC50 value) was calculated by using GraphPad Prism 6.0 software (GraphPad software, San Diego, CA, USA).

in vitro = settings: dog
[8] = test system: red blood cells from laboratory mice; assay: Membrane-protective activity: H2O2-induced hemolysis of erythrocytes; type: cell-based; settings: 1 μM, 1–5 h
Procedure: The membrane-protective properties of the compounds were evaluated in the model of oxidative hemolysis of erythrocytes at a concentration of 1 μM in order to avoid the effect of hemolytic activity.
as §1
Figure 4 Effect of unsymmetrical disulfides and Trolox (T) at a concentration of 1 μM on the level of H2O2-induced hemolysis of erythrocytes after 1–5 h of incubation.

[9] = Antioxidant activity: inhibition of lipid peroxidation (TBA-RS) in brain homogenates; design: species or system mice; settings: 100 μM and 1 mM, 1 h after initiation of LPO (ascorbate/Fe2+)
Procedure: The antioxidant activity of monoterpenylhetaryl disulfides was evaluated for their in vitro ability to inhibit lipid peroxidation (LPO) processes in the brain lipids of laboratory mice. The brain was removed and homogenized (10%) in physiological saline (pH = 7.4) and centrifuged for 10 min. Then, an aliquot of the supernatant (S1) was taken, into which the test compounds were added as solutions in ethanol (final concentration of 100 μM and 1 mM). After 30 min, LPO was initiated by adding a freshly prepared solution of FeSO4 and ascorbic acid. Then, the test samples were incubated for one hour at 37 °C with slow stirring in a thermostatic Biosan ES-20 shaker (Biosan, Riga, Latvia). The concentration of LPO secondary products reacting with 2-thiobarbituric acid (thiobarbituric acid reactive substances, TBA-RS) was determined using ThermoSpectromic Genesys 20 spectrophotometer (Thermo Fisher Scientific, Waltham, MA, USA) at λ = 532 nm, the extinction coefficient 1.56 × 10^5 M^−1cm^−1 was used for calculations.
Figure 2 Effect of unsymmetrical disulfides and Trolox (T) at concentrations of 100 μM and 1 mM on the content of TBA-RS in the brain homogenate in an hour after the initiation of LPO (ascorbate/Fe^2+ initiators). C—control sample containing no test compounds; I—intact sample in which LPO was not initiated.

SMILES	hemolytic activity (erythrotoxicity), in words [1]	MIC [2] [µg/mL]	MIC [3] [µg/mL]	MIC (P. aeruginosa ATCC 27853) [µg/mL]	IC50 [4] [µM]	Mutagenicity in the Ames Test [5]	MIC [6] [µg/mL]	CC50 at 24 h [7] [µg/mL]	CC50 (in vitro) [µM]	membrane-protective activity, in words [8]	antioxidant activity (inhibition of oxidation of brain lipids), in words [9]
CC(C)[C@@H]1CC[C@@H](C)C[C@@H]1SSc1nc2ccccc2s1 [Compound 1a, 2-(((1S,2S,5R)-2-isopropyl-5-methylcyclohexyl)disulfanyl)benzo[d]thiazole]	Low hemolytic activity	16 (≈ 47.4 µM)	16 (≈ 47.4 µM)	16 (≈ 47.4 µM)	5 ± 1	TA 100	512 (≈ 1520 µM)	11.7 (≈ 34.7 µM)	36 ± 3	–	–
Cc1cc(C)nc(SS[C@H]2C[C@H](C)CC[C@H]2C(C)C)n1 [Compound 1b, 2-(((1S,2S,5R)-2-isopropyl-5-methylcyclohexyl)disulfanyl)-4,6-dimethylpyrimidine]	–	16 (≈ 51.5 µM)	32 (≈ 103 µM)	32 (≈ 103 µM)	13 ± 2	TA 102	512 (≈ 1650 µM)	14 (≈ 45.1 µM)	29 ± 2	–	–
COC(=O)c1cccnc1SS[C@H]1C[C@H]2C[C@@H]([C@@H]1CO)C2(C)C [Compound 3c, Methyl 2-(((1S,2R,3S,5R)-2-(hydroxymethyl)-6,6-dimethylbicyclo[3.1.1]hept-3-yl)disulfanyl)pyridine-3-carboxylate]	–	64 (≈ 181 µM)	32 (≈ 90.5 µM)	1020 (≈ 2900 µM)	255 ± 31	–	1020 (≈ 2900 µM)	8.1 (≈ 22.9 µM)	> 283	most active	highest antioxidant activity
COC(=O)c1cccnc1SSC[C@@H]1[C@@H](O)C[C@H]2C[C@@H]1C2(C)C [Compound 4c, Methyl 2-((((1S,2S,3S,5R)-3-hydroxy-6,6-dimethylbicyclo[3.1.1]heptan-2-yl)methyl)disulfanyl)pyridine-3-carboxylate]	–	1020 (≈ 2900 µM)	> 1020	> 1020	34 ± 4	–	1020 (≈ 2900 µM)	–	40 ± 2	most active	highest antioxidant activity
